Drawing on patent US8906889B2, “C-3 cycloalkenyl triterpenoids with HIV maturation inhibitory activity” (priority 2012, dated 2014), this text covers EC50 for 17 compounds.

Where a name gives a salt, the structure may show the parent alone.

The first test concerns recombinant NL4-3 virus (Renilla luciferase, Gag P373S). Briefly: HIV cell culture assay (luciferase reporter, MT-2 cells). It is filed as cell-based. To be noted: MT-2 cells infected for 4-5 days with NLRluc recombinants; luciferase activity. As for the experimental part:
MT-2 cells and 293T cells were obtained from the NIH AIDS Research and Reference Reagent Program. MT-2 cells were propagated in RPMI 1640 media supplemented with 10% heat inactivated fetal bovine serum, […]. The 293T cells were propagated in DMEM media supplemented with 10% heat inactivated fetal bovine serum (FBS), 100 units/ml penicillin G and 100 μg/ml streptomycin. The proviral DNA clone of NL4-3 was obtained from the NIH AIDS Research and Reference Reagent Program. A recombinant NL4-3 virus, in which a section of the nef gene from NL4-3 was replaced with the Renilla luciferase gene, was used as a reference virus. In addition, residue Gag P373 was converted to P373S. Briefly, the recombinant virus was prepared by transfection of the altered proviral clone of NL4-3. Transfections were performed in 293T cells using LipofectAMINE PLUS from Invitrogen (Carlsbad, Calif.), according to manufacturer's instruction. The virus was titered in MT-2 cells using luciferase enzyme activity as a marker. Luciferase was quantitated using the Dual Luciferase kit from Promega (Madison, Wis.), with modifications to the manufacturer's protocol. The diluted Passive Lysis solution was pre-mixed with the re-suspended Luciferase Assay Reagent and the re-suspended Stop & Glo Substrate (2:1:1 ratio). Fifty (50) μL of the mixture was added to each aspirated well on assay plates and luciferase activity was measured immediately on a Wallac TriLux (Perkin-Elmer). Antiviral activities of inhibitors toward the recombinant virus were quantified by measuring luciferase activity in cells infected for 4-5 days with NLRluc recombinants in the presence serial dilutions of the inhibitor.
On the technique in general: In a reporter assay the amount or activity of a reporter protein is the signal.
The EC50 is the concentration at which the effect is half-maximal. As to `C=C(C)[C@@H]1CC[C@]2(NCCN3CCS(=O)(=O)CC3)CC[C@]3(C)[C@H](CC[C@@H]4[C@@]5(C)CC=C(C6=CC(C(=O)O)C(C(=O)O)C6)C(C)(C)[C@@H]5CC[C@]43C)[C@@H]12` (single isomer, unassigned) [Example A20], the EC50 worked out at 60 nM.

`C=C(C)[C@@H]1CC[C@]2(NCCN3CCC(S(C)(=O)=O)CC3)CC[C@]3(C)[C@H](CC[C@@H]4[C@@]5(C)CC=C(C6=CC7C(C6)C7C(=O)O)C(C)(C)[C@@H]5CC[C@]43C)[C@@H]12` (single isomer, unassigned) [Example A28]: the EC50 is 0.658 nM.

Staying with this test, now noted: Renilla, NL43, MT-2 cells infected for 4-5 days with NLRluc recombinants; luciferase activity.
Consider `C=C(C)[C@@H]1CC[C@]2(NCCN3CCC(S(C)(=O)=O)CC3)CC[C@]3(C)[C@H](CC[C@@H]4[C@@]5(C)CC=C(C6=CCC(C#N)(C(=O)O)CC6)C(C)(C)[C@@H]5CC[C@]43C)[C@@H]12` (mixture of isomers) [Example A6, 1-cyano-4-((1R,3aS,5aR,5bR,7aR,11aS,11bR,13aR,13bR)-5a,5b,8,8,11a-pentamethyl-3a-((2-(4-(methylsulfonyl)piperidin-1-yl)ethyl)amino)-1-(prop-1-en-2-yl)-2,3,3a,4,5,5a,5b,6,7,7a,8,11,11a,11b,12,13,13a,13b-octadecahydro-1H-cyclopenta[a]chrysen-9-yl)cyclohex-3-enecarboxylic acid], for which the EC50 stood at 6.18 nM.

With `C=C(C)[C@@H]1CC[C@]2(NCCN3CCC(S(C)(=O)=O)CC3)CC[C@]3(C)[C@H](CC[C@@H]4[C@@]5(C)CC=C(C6=CCC(Cl)(C(=O)O)CC6)C(C)(C)[C@@H]5CC[C@]43C)[C@@H]12` (mixture of isomers) [Example A8, 1-chloro-4-((1R,3aS,5aR,5bR,7aR,11aS,11bR,13aR,13bR)-5a,5b,8,8,11a-pentamethyl-3a-((2-(4-(methylsulfonyl)piperidin-1-yl)ethyl)amino)-1-(prop-1-en-2-yl)-2,3,3a,4,5,5a,5b,6,7,7a,8,11,11a,11b,12,13,13a,13b-octadecahydro-1H-cyclopenta[a]chrysen-9-yl)cyclohex-3-enecarboxylic acid], the EC50 is 2.42 nM.

For `C=C(C)[C@@H]1CC[C@]2(NCCN3CCC(S(C)(=O)=O)CC3)CC[C@]3(C)[C@H](CC[C@@H]4[C@@]5(C)CC=C(C6=CCC(CCO)(C(=O)O)CC6)C(C)(C)[C@@H]5CC[C@]43C)[C@@H]12` (mixture of isomers) [Example A11], the EC50 was determined as 2.65 nM.

In the case of `C=C(C)[C@@H]1CC[C@]2(NCCN3CCC(S(C)(=O)=O)CC3)CC[C@]3(C)[C@H](CC[C@@H]4[C@@]5(C)CC=C(C6=CCC(CO)(C(=O)O)CC6)C(C)(C)[C@@H]5CC[C@]43C)[C@@H]12` (mixture of isomers) [Example A13, 1-(hydroxymethyl)-4-((1R,3aS,5aR,5bR,7aR,11aS,11bR,13aR,13bR)-5a,5b,8,8,11a-pentamethyl-3a-((2-(4-(methylsulfonyl)piperidin-1-yl)ethyl)amino)-1-(prop-1-en-2-yl)-2,3,3a,4,5,5a,5b,6,7,7a,8,11,11a,11b,12,13,13a,13b-octadecahydro-1H-cyclopenta[a]chrysen-9-yl)cyclohex-3-enecarboxylic acid], the EC50 came to 0.301 nM.

Consider `C=C(C)[C@@H]1CC[C@]2(NCCN3CCS(=O)(=O)CC3)CC[C@]3(C)[C@H](CC[C@@H]4[C@@]5(C)CC=C(C6=CC(CC(=O)O)CC6)C(C)(C)[C@@H]5CC[C@]43C)[C@@H]12` (mixture of isomers) [Example A15], for which the EC50 came to 0.547 nM.

In the case of `C=C(C)[C@@H]1CC[C@]2(NCCN3CCS(=O)(=O)CC3)CC[C@]3(C)[C@H](CC[C@@H]4[C@@]5(C)CC=C(C6=CC7C(C6)C7C(=O)O)C(C)(C)[C@@H]5CC[C@]43C)[C@@H]12` (mixture of isomers) [Example A18, 3-((1R,3aS,5aR,5bR,7aR,11aS,11bR,13aR,13bR)-3a-((2-(1,1-dioxidothiomorpholino)ethyl)amino)-5a,5b,8,8,11a-pentamethyl-1-(prop-1-en-2-yl)-2,3,3a,4,5,5a,5b,6,7,7a,8,11,11a,11b,12,13,13a,13b-octadecahydro-1H-cyclopenta[a]chrysen-9-yl)bicyclo[3.1.0]hex-2-ene-6-carboxylic acid], the EC50 was 2.26 nM.

Take `C=C(C)[C@@H]1CC[C@]2(NCCN3CCC(S(C)(=O)=O)CC3)CC[C@]3(C)[C@H](CC[C@@H]4[C@@]5(C)CC=C(C6=CCC(NC(C)=O)(C(=O)O)CC6)C(C)(C)[C@@H]5CC[C@]43C)[C@@H]12` (mixture of isomers) [Example A32, 1-acetamido-4-((1R,3aS,5aR,5bR,7aR,11aS,11bR,13aR,13bR)-5a,5b,8,8,11a-pentamethyl-3a-((2-(4-(methylsulfonyl)piperidin-1-yl)ethyl)amino)-1-(prop-1-en-2-yl)-2,3,3a,4,5,5a,5b,6,7,7a,8,11,11a,11b,12,13,13a,13b-octadecahydro-1H-cyclopenta[a]chrysen-9-yl)cyclohex-3-enecarboxylic acid]: the EC50 is 1.5 nM.

Turning to `C=C(C)[C@@H]1CC[C@]2(NCCN3CCC(S(C)(=O)=O)CC3)CC[C@]3(C)[C@H](CC[C@@H]4[C@@]5(C)CC=C(C6=CCC(CC(=O)O)CC6)C(C)(C)[C@@H]5CC[C@]43C)[C@@H]12` (mixture of isomers) [Example A33, 2-(4-((1R,3aS,5aR,5bR,7aR,11aS,11bR,13aR,13bR)-5a,5b,8,8,11a-pentamethyl-3a-((2-(4-(methylsulfonyl)piperidin-1-yl)ethyl)amino)-1-(prop-1-en-2-yl)-2,3,3a,4,5,5a,5b,6,7,7a,8,11,11a,11b,12,13,13a,13b-octadecahydro-1H-cyclopenta[a]chrysen-9-yl)cyclohex-3-en-1-yl)acetic acid], the EC50 was 570 nM.

On to `C=C(C)[C@@H]1CC[C@]2(NCCN3CCS(=O)(=O)CC3)CC[C@]3(C)[C@H](CC[C@@H]4[C@@]5(C)CC=C(C6=CC(C(=O)O)C(C(=O)O)C6)C(C)(C)[C@@H]5CC[C@]43C)[C@@H]12` (single isomer, unassigned) [Example A19], for which the EC50 is 100 nM.

For the compound `C=C(C)[C@@H]1CC[C@]2(NCCN3CCS(=O)(=O)CC3)CC[C@]3(C)[C@H](CC[C@@H]4[C@@]5(C)CC=C(C6=CC(C(F)(F)C(=O)O)CC6)C(C)(C)[C@@H]5CC[C@]43C)[C@@H]12` (single isomer, unassigned) [Example A23], the EC50 stood at 5.63 nM.

For `C=C(C)[C@@H]1CC[C@]2(NCCN3CCS(=O)(=O)CC3)CC[C@]3(C)[C@H](CC[C@@H]4[C@@]5(C)CC=C(C6=CCC(C(F)(F)C(=O)O)C6)C(C)(C)[C@@H]5CC[C@]43C)[C@@H]12` (single isomer, unassigned) [Example A24], the EC50 was 4.65 nM.

Take `C=C(C)[C@@H]1CC[C@]2(NCCN3CCS(=O)(=O)CC3)CC[C@]3(C)[C@H](CC[C@@H]4[C@@]5(C)CC=C(C6=CC7C(C6)C7C(=O)O)C(C)(C)[C@@H]5CC[C@]43C)[C@@H]12` (single isomer, unassigned) [Example A26]: the concentration for a half-maximal effect (EC50) is 0.941 nM.

With `C=C(C)[C@@H]1CC[C@]2(NCCN3CCC(S(C)(=O)=O)CC3)CC[C@]3(C)[C@H](CC[C@@H]4[C@@]5(C)CC=C(C6=CC7C(C6)C7C(=O)O)C(C)(C)[C@@H]5CC[C@]43C)[C@@H]12` (single isomer, unassigned) [Example A27], the EC50 was 0.921 nM.

As for `C=C(C)[C@@H]1CC[C@]2(NCCN3CCS(=O)(=O)CC3)CC[C@]3(C)[C@H](CC[C@@H]4[C@@]5(C)CC=C(C6=CCC(C(=O)O)CC6)C(C)(C)[C@@H]5CC[C@]43C)[C@@H]12` (stereo in doubt) [Example 9, (R)-4-((1R,3aS,5aR,5bR,7aR,11aS,11bR,13aR,13bR)-3a-((2-(1,1-dioxidothiomorpholino)ethyl)amino)-5a,5b,8,8,11a-pentamethyl-1-(prop-1-en-2-yl)-2,3,3a,4,5,5a,5b,6,7,7a,8,11,11a,11b,12,13,13a,13b-octadecahydro-1H-cyclopenta[a]chrysen-9-yl)cyclohex-3-enecarboxylic acid, TFA], the EC50 came out at 0.892 nM.

As for `C=C(C)[C@@H]1CC[C@]2(NCCN3CCS(=O)(=O)CC3)CC[C@]3(C)[C@H](CC[C@@H]4[C@@]5(C)CC=C(C6=CCC(C(=O)O)CC6)C(C)(C)[C@@H]5CC[C@]43C)[C@@H]12` (stereo in doubt) [Example 10, (S)-4-((1R,3aS,5aR,5bR,7aR,11aS,11bR,13aR,13bR)-3a-((2-(1,1-dioxidothiomorpholino)ethyl)amino)-5a,5b,8,8,11a-pentamethyl-1-(prop-1-en-2-yl)-2,3,3a,4,5,5a,5b,6,7,7a,8,11,11a,11b,12,13,13a,13b-octadecahydro-1H-cyclopenta[a]chrysen-9-yl)cyclohex-3-enecarboxylic acid, TFA], the EC50 was 1.26 nM.
